Measured values: patent US20070066580A1, “Novel aldosterone antagonists and uses thereof” (Recordati Ireland Limited, priority 2005, published 2007)

Experiments:
[1] = biological target: T1, GAL4 DBD-hMR LBD fusion protein (Homo sapiens, UniProt P08235); test: Cell-based luciferase assay, agonist mode (CV-1 cells); settings: 10 μM of compound
T1 construct: expressed in transfected cells; host or cells: CV-1 cells (African green monkey kidney), transient co-transfection with pCMX-GAL4-based vector and Galp3TKLuc reporter
Description: GAL4 DBD-hMR LBD fusion protein expression vector: A pCMX-GAL4-based vector was used for the expression of a fusion protein composed of the amino acids 1-147 of the DNA binding domain of Saccharomyces cerevisiae GAL4 (GAL4 DBD) (SEQ ID NO: 16) and amino acid residues 729-984 of the ligand binding domain of human mineralocorticoid receptor (hMR LBD) (SEQ ID NO: 14). The expression vector contained an expression cassette of the nucleotide sequence for the GAL4 DBD (See SEQ ID NO: 19) ligated to nucleotides 2401 through 3168 of the human mineralocorticoid (hMR) receptor (SEQ ID NO: 13).
In vitro cell culture: CV-1 cells (African green monkey kidney cell line, ATCC accession number CCL-70) were maintained in culture in 90% DMEM medium supplemented by 9% FCS and 1% Penicillin-Streptomycin-L-Glutamine at 37° C. under 8.5% CO2.
These cells were transiently co-transfected with the GAL4 DBD-hMR LBD fusion protein expression vector and the Galp3TKLuc reporter gene vector using the FuGENE 6 Transfection Reagent (Roche) according to the manufacturer's instructions.
Agonist assay: As a positive control, aldosterone (Acros Organics, catalogue # 215360050) was used at a concentration of 100 nM. The negative control sample was 90% DMEM medium supplemented by 9% charcoal-treated FCS and 1% Penicillin-Streptomycin-L-Glutamine containing 0.2% DMSO plus 0.02% ethanol. Positive control, negative control, or 10 μM final concentration of test compound was added to the cells and incubated for 24 hours at 37° C. under 8.5% CO2 before the Luciferase substrate (Promega, catalogue number #E2620) was added. After an incubation period of 5 min at RT, luminescence signals were read on a microplate reader (Molecular Devices/LJL Biosystems). Negative and positive controls were defined as 0% and 100% agonism, respectively. The agonistic potency of test compounds is given in % and was normalized to the positive and negative controls.

[2] = biological target: T2, ligand binding domain of the human mineralocorticoid receptor (hMR LBD) (Homo sapiens, UniProt P08235); test: Mineralocorticoid receptor (MR) in vitro competitive binding assay, [3H]aldosterone displacement; settings: IR^TOTAL = sum of IR^AR/MR, IR^ER/MR, IR^GR/MR, IR^PR/MR
T2 construct: made in house; host or cells: Sf9 insect cells (baculovirus, pFastBac)
T2 sequence (P08235 729-984): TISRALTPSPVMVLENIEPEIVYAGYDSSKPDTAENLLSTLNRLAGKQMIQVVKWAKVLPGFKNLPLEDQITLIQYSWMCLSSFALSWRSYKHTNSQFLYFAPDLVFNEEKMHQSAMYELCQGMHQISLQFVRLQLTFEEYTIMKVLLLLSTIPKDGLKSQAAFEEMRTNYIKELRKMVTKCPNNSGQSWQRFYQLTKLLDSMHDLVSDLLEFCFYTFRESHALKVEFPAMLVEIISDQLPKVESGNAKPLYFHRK
Description: Mineralocorticoid receptor (MR) binding assay: Spodoptera furgiperda (Sf9) insect cells (ATCC accession number CRL-1711) were maintained in culture in EX-CELL™ 420 serum free medium (JRH Biosciences, Inc.) at 27° C.
A recombinant baculovirus containing nucleotide sequences encoding the ligand binding domain of the human mineralocorticoid receptor (hMR) cloned into the pFastBac™ vector was generated using the Bac-to-Bac® Baculovirus Expression System Kit (Invitrogen) following the manufacturer's instructions. This recombinant baculovirus contains nucleotides 2401 through 3168 (SEQ ID NO: 13) of hMR, providing for expression of the ligand binding domain (LBD), amino acid residues 729-984 (SEQ ID NO: 14), of hMR (hMR LBD). Cultured Sf9 insect cells were transfected with this recombinant baculovirus following the manufacturer's instructions.
For the binding assay, a crude lysate of the hMR LBD-expressing insect cells was prepared. The crude lysate was diluted 12.5-fold with binding buffer (20 mM Tris-HCl pH 7.4, 1 mM EDTA, 1 mM dithiothreitol, 20 mM sodium tungstate, 50 mM KCl and 10% glycerol).
For the negative control sample, the diluted lysate was incubated with a 10 nM final concentration of the radioligand [1,2,6,7-^3H] aldosterone (Amersham Biosciences, catalogue # 434) for 3.5 h at 4° C. For test compounds and the positive control sample, the diluted lysate was incubated with various concentrations of test compound or with a 20 μM final concentration of spironolactone (Sigma, S-3378) as a reference compound for 45 min on ice, and was then incubated with a 10 nM final concentration of [1,2,6,7-^3H] aldosterone for 3.5 h at 4° C.
Using a CellHarvester (PerkinElmer, formerly Packard Biosciences), receptor/ligand complexes were retained on 96-well GF/B filters (PerkinElmer, formerly Packard Biosciences) while free radioligand passed through the filters. Scintillation counting of GF/B filter plates was performed using a TopCount NXT (PerkinElmer, formerly Packard Biosciences) to quantitate the amount of [1,2,6,7-^3H] aldosterone bound to the hMR LBD.
The IC50 of a test compound was determined from the concentration of test compound giving half-maximal displacement as obtained by nonlinear least-squares curve fitting to a one-site binding sigmoidal model using Prism 3.0 (Graph Pad Software, Inc., San Diego, US). The calculated IC50 values represent the average values calculated from the results of 1-3 experiments carried out in duplicate.
IC50 and inhibitory ratio calculations: To provide a measure of the potency of each test compound as an antagonist of MR, the IC50 of each test compound (IC50^Test) for ligand binding to MR and the IC50 of the known MR antagonists eplerenone (IC50^Ep) and spironolactone (IC50^Sp) for ligand binding to MR were used to calculate an IC50 ratio (RIC50) according to the following equations: RIC50^Ep/Test=IC50^Ep/IC50^Test and RIC50^Sp/Test=IC50^Sp/IC50^Test.
These individual inhibitory ratios were used to calculate a total inhibitory ratio (IR^TOTAL) according to the following equation: IR^TOTAL=IR^AR/MR+IR^ER/MR+IR^GR/MR+IR^PR/MR. B. Results and Discussion

T1 sequence (P08235 with tags, fused parts or gaps limits assumed): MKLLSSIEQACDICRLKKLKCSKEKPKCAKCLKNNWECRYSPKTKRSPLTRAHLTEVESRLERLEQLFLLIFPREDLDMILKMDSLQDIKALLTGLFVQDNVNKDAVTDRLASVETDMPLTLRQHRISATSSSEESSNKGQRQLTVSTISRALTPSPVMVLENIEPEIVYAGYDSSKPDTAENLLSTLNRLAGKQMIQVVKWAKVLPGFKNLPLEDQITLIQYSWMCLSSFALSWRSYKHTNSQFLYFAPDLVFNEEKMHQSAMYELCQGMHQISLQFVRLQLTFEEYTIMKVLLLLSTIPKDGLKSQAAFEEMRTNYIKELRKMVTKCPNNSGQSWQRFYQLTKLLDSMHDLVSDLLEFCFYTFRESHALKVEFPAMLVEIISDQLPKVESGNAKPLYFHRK

| Compound | potency for activation of MR relative to aldosterone [1] | IR^TOTAL compared with the IR^TOTAL for eplerenone [2] | IR^TOTAL compared with the IR^TOTAL for spironolactone [2] |
| --- | --- | --- | --- |
| C[C@]12CCC(=O)C=C1C[C@@H](SCC(F)(F)F)C1C2=CC[C@@]2(C)C1CC[C@@]21CCC(=O)O1 (stereo partly shown) [Example 18] | at least three orders of magnitude less potent than aldosterone |  |  |
| CCC[C@@H]1CC2=CC(=O)CC[C@]2(C)C2=CC[C@@]3(C)C(CC[C@@]34CCC(=O)O4)C21 (stereo partly shown) [Example 9] | at least three orders of magnitude less potent than aldosterone |  |  |
| CCC[C@@H]1CC2=CC(=O)CC[C@]2(C)[C@@]23O[C@@H]2C[C@@]2(C)C(CC[C@@]24CCC(=O)O4)C13 (stereo partly shown) [Example 10] | at least three orders of magnitude less potent than aldosterone |  |  |
| CC(=O)S[C@@H]1CC2=CC(=O)CC[C@]2(C)[C@@]23O[C@@H]2C[C@@]2(C)C(CC[C@@]24COC(=O)O4)C13 (stereo partly shown) [Example 46] |  | at least an order of magnitude greater than the IR^TOTAL for eplerenone | greater than the IR^TOTAL for spironolactone |
| CCC[C@@H]1CC2=CC(=O)CC[C@]2(C)[C@@]23O[C@@H]2C[C@@]2(C)C(C13)[C@@H]1C[C@@H]1[C@@]21CCC(=O)O1 (stereo partly shown) [Example 71] | at least three orders of magnitude less potent than aldosterone |  |  |
| C[C@]12CCC(=O)C=C1C[C@@H](C#N)C1C2=CC[C@@]2(C)C1[C@@H]1C[C@@H]1[C@@]21COC(=O)O1 (stereo partly shown) [Example 76] |  | at least an order of magnitude greater than the IR^TOTAL for eplerenone | at least an order of magnitude greater than the IR^TOTAL for spironolactone |
| C[C@]12CCC(=O)C=C1CCC1C2=CC[C@@]2(C)C1[C@@H]1C[C@@H]1[C@@]21COC(=O)O1 (stereo partly shown) [Example 75] |  | at least an order of magnitude greater than the IR^TOTAL for eplerenone | at least an order of magnitude greater than the IR^TOTAL for spironolactone |
| CCCS[C@@H]1CC2=CC(=O)CC[C@]2(C)[C@@]23O[C@@H]2C[C@@]2(C)C(CC[C@@]24CCC(=O)O4)C13 (stereo partly shown) [Example 12] | at least three orders of magnitude less potent than aldosterone |  |  |
| CCC[C@@H]1CC2=CC(=O)CC[C@]2(C)C2=CC[C@@]3(C)C(C21)[C@@H]1C[C@@H]1[C@@]31CCC(=O)O1 (stereo partly shown) [Example 70] | at least three orders of magnitude less potent than aldosterone | at least an order of magnitude greater than the IR^TOTAL for eplerenone | at least an order of magnitude greater than the IR^TOTAL for spironolactone |
| CO/N=C/[C@@H]1CC2=CC(=O)CC[C@]2(C)[C@@]23O[C@@H]2C[C@@]2(C)C(CC[C@@]24CCC(=O)O4)C13 (stereo partly shown) [Example 52] | at least three orders of magnitude less potent than aldosterone |  | greater than the IR^TOTAL for spironolactone |
| C=CCC[C@@H]1CC2=CC(=O)CC[C@]2(C)C2=CC[C@@]3(C)C(CC[C@@]34CCC(=O)O4)C21 (stereo partly shown) [Example 8] | at least three orders of magnitude less potent than aldosterone |  |  |
| CC(=O)S[C@@H]1CC2=CC(=O)CC[C@]2(C)C2=CC[C@@]3(C)C(CC[C@@]34CCC(=O)O4)C21 (stereo partly shown) [Example 11] |  | at least an order of magnitude greater than the IR^TOTAL for eplerenone | greater than the IR^TOTAL for spironolactone |
| C[C@]12CCC(=O)C=C1CCC1C3CC[C@@]4(COC(=O)O4)[C@@]3(C)C[C@H]3O[C@@]132 (stereo partly shown) [Example 41] | at least three orders of magnitude less potent than aldosterone |  |  |
| CO/N=C/[C@@H]1CC2=CC(=O)CC[C@]2(C)C2=CC[C@@]3(C)C(CC[C@@]34CCC(=O)O4)C21 (stereo partly shown) [Example 34] | at least three orders of magnitude less potent than aldosterone |  |  |
| C[C@@H]1CC2=CC(=O)CC[C@]2(C)C2=CC[C@@]3(C)C(CC[C@@]34CCC(=O)O4)C21 (stereo partly shown) [Example 26] | at least three orders of magnitude less potent than aldosterone |  |  |
